From patent US8338465B2, “Cyclic carboxylic acid rhodanine derivatives for the treatment and prevention of tuberculosis” (priority 2006, dated 2012)

Molecular target: T1, dihydrolipoamide acyltransferase (DlaT) (Mycobacterium tuberculosis, UniProt P9WIS7)
T1 sequence (P9WIS7 1-553): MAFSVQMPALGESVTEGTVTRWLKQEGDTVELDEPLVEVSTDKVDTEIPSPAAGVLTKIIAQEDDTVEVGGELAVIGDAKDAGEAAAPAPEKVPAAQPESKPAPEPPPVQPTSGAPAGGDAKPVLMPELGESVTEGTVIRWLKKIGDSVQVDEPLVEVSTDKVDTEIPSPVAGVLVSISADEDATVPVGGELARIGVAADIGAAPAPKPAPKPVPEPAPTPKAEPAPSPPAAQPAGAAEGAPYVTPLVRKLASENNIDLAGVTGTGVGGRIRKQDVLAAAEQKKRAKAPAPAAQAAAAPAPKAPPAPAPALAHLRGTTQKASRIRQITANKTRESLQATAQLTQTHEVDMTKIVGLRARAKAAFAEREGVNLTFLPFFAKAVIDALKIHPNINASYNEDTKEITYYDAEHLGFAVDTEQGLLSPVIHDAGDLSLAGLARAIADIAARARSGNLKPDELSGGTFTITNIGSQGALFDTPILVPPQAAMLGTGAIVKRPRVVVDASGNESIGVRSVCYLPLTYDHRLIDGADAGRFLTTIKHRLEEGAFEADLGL
Assay: DlaT inhibition (Dlat IC50); DTNB peroxidase assay with Lpd, DlaT and AhpD
Assay type: biochemical
Details: Dlat IC50 category

Structure (SMILES): O=C(O)C(c1ccccc1)N1C(=O)C(=Cc2ccc(-c3ccc(-c4ccccc4)cc3)o2)SC1=S (centres unmarked) [Compound B19]
- IC50: < 10 µM

Structure (SMILES): O=C(O)CCCCCN1C(=O)C(=Cc2ccc(-c3cc(C(F)(F)F)ccc3Cl)o2)SC1=S [Compound B20]
- IC50: < 10 µM

Structure (SMILES): COc1ccc(-c2ccc(C=C3SC(=S)N(CCCCCC(=O)O)C3=O)o2)cc1Cl [Compound B21]
- IC50: 11 to 40 µM

Structure (SMILES): O=C(O)CCCCCN1C(=O)C(=Cc2ccc(-c3cccc(C(F)(F)F)c3)o2)SC1=S [Compound B22]
- IC50: < 10 µM

Structure (SMILES): O=C(O)CCCCCN1C(=O)C(=Cc2ccc(-c3ccccc3C(F)(F)F)o2)SC1=S [Compound B23]
- IC50: 11 to 40 µM

Structure (SMILES): O=C(O)CCCCCN1C(=O)C(=Cc2ccc(-c3ccccc3OC(F)(F)F)o2)SC1=S [Compound B24]
- IC50: < 10 µM

Structure (SMILES): O=C(O)C(c1ccccc1)N1C(=O)C(=Cc2ncc(-c3cccc(C(F)(F)F)c3)s2)SC1=S (centres unmarked) [Compound B25]
- IC50: < 10 µM

Structure (SMILES): O=C(O)CCN1C(=O)C(=Cc2ccc(-c3ccc(O)cc3)o2)SC1=S [Compound B26]
- IC50: 41 to 80 µM

Structure (SMILES): O=C(O)CCCCCN1C(=O)C(=Cc2ccc(-c3ccc(O)cc3)o2)SC1=S [Compound B27]
- IC50: < 10 µM

Structure (SMILES): O=C(O)C(c1ccccc1)N1C(=O)C(=Cc2ccc(-c3ccc(Oc4ccccc4)cc3)o2)SC1=S (centres unmarked) [Compound B28]
- IC50: 11 to 40 µM

Structure (SMILES): O=C(O)C(c1ccccc1)N1C(=O)C(=Cc2ccc(-c3ccc(O)cc3)o2)SC1=S (centres unmarked) [Compound B29]
- IC50: 11 to 40 µM

Structure (SMILES): O=C(O)CN1C(=O)C(=Cc2ccc(-c3ccc(Cc4ccccc4)cc3)o2)SC1=S [Compound B30]
- IC50: < 10 µM

Structure (SMILES): O=C(O)CCN1C(=O)C(=Cc2ccc(-c3ccc(Cc4ccccc4)cc3)o2)SC1=S [Compound B31]
- IC50: < 10 µM

Structure (SMILES): O=C(O)C(c1ccccc1)N1C(=O)C(=Cc2ccc(-c3ccc(Cc4ccccc4)cc3)o2)SC1=S (centres unmarked) [Compound B32]
- IC50: < 10 µM

Structure (SMILES): O=C(O)CCCCCN1C(=O)C(=Cc2ccc(-c3ccc(Cc4ccccc4)cc3)o2)SC1=S [Compound B33]
- IC50: 11 to 40 µM

Structure (SMILES): O=C(O)CCCCCN1C(=O)C(=Cc2ncc(-c3cccc(Cl)c3)o2)SC1=S [Compound B34]
- IC50: 11 to 40 µM

Structure (SMILES): O=C(O)C(c1ccccc1)N1C(=O)C(=Cc2ncc(-c3cccc(Cl)c3)o2)SC1=S (centres unmarked) [Compound B35]
- IC50: 11 to 40 µM

Structure (SMILES): O=C(O)[C@@H](c1ccccc1)N1C(=O)C(=Cc2ccc(-c3ccc(Cl)cc3)o2)SC1=S [Compound B36]
- IC50: < 10 µM

Structure (SMILES): O=C(O)[C@H](c1ccccc1)N1C(=O)C(=Cc2ccc(-c3ccc(Cl)cc3)o2)SC1=S [Compound B37]
- IC50: < 10 µM

Structure (SMILES): O=C(O)C(c1ccccc1)N1C(=O)C(=Cc2cc(-c3cccc(C(F)(F)F)c3)co2)SC1=S (centres unmarked) [Compound B38]
- IC50: < 10 µM

Structure (SMILES): O=C(O)CCCCCN1C(=O)C(=Cc2cc(-c3cccc(C(F)(F)F)c3)co2)SC1=S [Compound B39]
- IC50: 11 to 40 µM

Structure (SMILES): O=C(O)C(Cc1ccccc1)N1C(=O)C(=Cc2ccc(-c3cccc(C(F)(F)F)c3)o2)SC1=S (centres unmarked) [Compound B40]
- IC50: < 10 µM

Structure (SMILES): O=C(O)C(Cc1ccccc1)N1C(=O)C(=Cc2ccc(-c3ccccc3Cl)o2)SC1=S (centres unmarked) [Compound B41]
- IC50: < 10 µM

Structure (SMILES): O=C(O)C(Cc1ccccc1)N1C(=O)C(=Cc2ccc(-c3ccc(Cl)cc3)o2)SC1=S (centres unmarked) [Compound B42]
- IC50: < 10 µM

Structure (SMILES): O=C(O)CN1C(=O)C(=Cc2ccc(-c3ccc(Cl)cc3Cl)o2)SC1=S [Compound B43]
- IC50: < 10 µM

Structure (SMILES): O=C(O)C(c1ccccc1)N1C(=O)C(=Cc2ccc(-c3ccc(Cl)cc3Cl)o2)SC1=S (centres unmarked) [Compound B44]
- IC50: < 10 µM

Structure (SMILES): O=C(O)C(Cc1ccccc1)N1C(=O)C(=Cc2ccc(-c3ccc(Cl)cc3Cl)o2)SC1=S (centres unmarked) [Compound B45]
- IC50: < 10 µM

Structure (SMILES): O=C(O)C(c1ccccc1)N1C(=O)C(=Cc2ccc(-c3cc(Cl)ccc3Cl)o2)SC1=S (centres unmarked) [Compound B46]
- IC50: < 10 µM

Structure (SMILES): O=C(O)C(Cc1ccccc1)N1C(=O)C(=Cc2ccc(-c3cc(Cl)ccc3Cl)o2)SC1=S (centres unmarked) [Compound B47]
- IC50: < 10 µM

Structure (SMILES): O=C(O)C(c1ccccc1)N1C(=O)C(=Cc2ccc(-c3c(Cl)cccc3Cl)o2)SC1=S (centres unmarked) [Compound B48]
- IC50: < 10 µM

Structure (SMILES): O=C(O)C(Cc1ccccc1)N1C(=O)C(=Cc2ccc(-c3c(Cl)cccc3Cl)o2)SC1=S (centres unmarked) [Compound B49]
- IC50: < 10 µM

Structure (SMILES): O=C(O)C(c1ccccc1)N1C(=O)C(=Cc2ccc(-c3cccc(C(F)(F)F)c3)o2)SC1=S (centres unmarked) [Compound B50]
- IC50: < 10 µM

Structure (SMILES): O=C(O)C(Cc1ccc(O)cc1)N1C(=O)C(=Cc2ccc(-c3ccccc3Cl)o2)SC1=S (centres unmarked) [Compound B51]
- IC50: < 10 µM

Structure (SMILES): O=C(O)C(Cc1ccc(O)cc1)N1C(=O)C(=Cc2ccc(-c3cccc(C(F)(F)F)c3)o2)SC1=S (centres unmarked) [Compound B52]
- IC50: < 10 µM

Structure (SMILES): O=C(O)C(Cc1ccc(O)cc1)N1C(=O)C(=Cc2ccc(-c3ccc(Cl)cc3)o2)SC1=S (centres unmarked) [Compound B53]
- IC50: < 10 µM

Structure (SMILES): O=C(O)C(Cc1ccc(O)c(O)c1)N1C(=O)C(=Cc2ccc(-c3ccccc3Cl)o2)SC1=S (centres unmarked) [Compound B54]
- IC50: 11 to 40 µM

Structure (SMILES): O=C(O)C(Cc1ccc(O)c(O)c1)N1C(=O)C(=Cc2ccc(-c3cccc(C(F)(F)F)c3)o2)SC1=S (centres unmarked) [Compound B55]
- IC50: < 10 µM

Structure (SMILES): O=C(O)C(Cc1ccc(O)c(O)c1)N1C(=O)C(=Cc2ccc(-c3ccc(Cl)cc3)o2)SC1=S (centres unmarked) [Compound B56]
- IC50: 11 to 40 µM

Structure (SMILES): O=C(O)C(Cc1ccccc1)N1C(=O)C(=Cc2ccc(-c3ccc(Cc4ccccc4)cc3)o2)SC1=S (centres unmarked) [Compound B57]
- IC50: < 10 µM

Structure (SMILES): O=C(O)C(Cc1ccc(O)cc1)N1C(=O)C(=Cc2ccc(-c3ccc(Cc4ccccc4)cc3)o2)SC1=S (centres unmarked) [Compound B58]
- IC50: < 10 µM

Structure (SMILES): O=C(O)C(Cc1ccc(O)c(O)c1)N1C(=O)C(=Cc2ccc(-c3ccc(Cc4ccccc4)cc3)o2)SC1=S (centres unmarked) [Compound B59]
- IC50: < 10 µM

Structure (SMILES): O=C(O)CN1C(=O)C(=Cc2ccc(-c3ccc(Cl)cc3)o2)SC1=S [Compound B60]
- IC50: 11 to 40 µM

Structure (SMILES): O=C(O)CN1C(=O)C(=Cc2ccc(-c3cc(C(F)(F)F)ccc3Cl)o2)SC1=S [Compound B61]
- IC50: < 10 µM

Structure (SMILES): O=C(O)C(Cc1ccc(O)cc1)N1C(=O)C(=Cc2ccc(-c3cc(Cl)ccc3Cl)o2)SC1=S (centres unmarked) [Compound B62]
- IC50: < 10 µM

Structure (SMILES): O=C(O)C(Cc1ccc(O)cc1)N1C(=O)C(=Cc2ccc(-c3cc(C(F)(F)F)ccc3Cl)o2)SC1=S (centres unmarked) [Compound B63]
- IC50: < 10 µM

Structure (SMILES): O=C(O)C(Cc1ccc(O)c(O)c1)N1C(=O)C(=Cc2ccc(-c3cc(Cl)ccc3Cl)o2)SC1=S (centres unmarked) [Compound B64]
- IC50: < 10 µM

Structure (SMILES): O=C(O)C(Cc1ccc(O)c(O)c1)N1C(=O)C(=Cc2ccc(-c3cc(C(F)(F)F)ccc3Cl)o2)SC1=S (centres unmarked) [Compound B65]
- IC50: < 10 µM

Structure (SMILES): CC(C)c1ccc(-c2ccc(C=C3SC(=S)N(C(C(=O)O)c4ccccc4)C3=O)o2)cc1 (centres unmarked) [Compound B66]
- IC50: < 10 µM

Structure (SMILES): CC(C)c1ccc(-c2ccc(C=C3SC(=S)N(C(Cc4ccccc4)C(=O)O)C3=O)o2)cc1 (centres unmarked) [Compound B67]
- IC50: < 10 µM

Structure (SMILES): CC(C)c1ccc(-c2ccc(C=C3SC(=S)N(C(Cc4ccc(O)c(O)c4)C(=O)O)C3=O)o2)cc1 (centres unmarked) [Compound B68]
- IC50: < 10 µM

Structure (SMILES): O=C(O)CN1C(=O)C(=Cc2ccc(-c3ccc(C(=O)c4ccccc4)cc3)o2)SC1=S [Compound B69]
- IC50: 11 to 40 µM

Structure (SMILES): CC(C)c1ccc(-c2ccc(C=C3SC(=S)N(CC(=O)O)C3=O)o2)cc1 [Compound B70]
- IC50: 11 to 40 µM

Structure (SMILES): O=C(O)CN1C(=O)C(=Cc2ccc(-c3ccc(CSc4ccccc4)cc3)o2)SC1=S [Compound B71]
- IC50: 11 to 40 µM

Structure (SMILES): CC(C)c1cccc(-c2ccc(C=C3SC(=S)N(CC(=O)O)C3=O)o2)c1 [Compound B72]
- IC50: < 10 µM

Structure (SMILES): O=C(O)CN1C(=O)C(=Cc2ccc(-c3ccc(C4CCCCC4)cc3)o2)SC1=S [Compound B73]
- IC50: < 10 µM

Structure (SMILES): CC(C)(C)c1ccc(-c2ccc(C=C3SC(=S)N(CC(=O)O)C3=O)o2)cc1 [Compound B74]
- IC50: < 10 µM

Structure (SMILES): CC(C)c1cccc(-c2ccc(C=C3SC(=S)N(C(Cc4ccccc4)C(=O)O)C3=O)o2)c1 (centres unmarked) [Compound B75]
- IC50: < 10 µM

Structure (SMILES): O=C(O)C(Cc1ccccc1)N1C(=O)C(=Cc2ccc(-c3ccc(CSc4ccccc4)cc3)o2)SC1=S (centres unmarked) [Compound B76]
- IC50: < 10 µM

Structure (SMILES): CC(C)Cc1ccc(-c2ccc(C=C3SC(=S)N(CC(=O)O)C3=O)o2)cc1 [Compound B77]
- IC50: < 10 µM

Structure (SMILES): CC(C)Cc1ccc(-c2ccc(C=C3SC(=S)N(C(C(=O)O)c4ccccc4)C3=O)o2)cc1 (centres unmarked) [Compound B78]
- IC50: < 10 µM

Structure (SMILES): O=C(O)CN1C(=O)C(=Cc2ccc(-c3ccc(Cc4ccc(Cl)cc4)cc3)o2)SC1=S [Compound B79]
- IC50: < 10 µM

Structure (SMILES): O=C(O)CN1C(=O)C(=Cc2ccc(-c3ccc(C4CCCC4)cc3)o2)SC1=S [Compound B81]
- IC50: < 10 µM

Structure (SMILES): C=C(c1ccccc1)c1ccc(-c2ccc(C=C3SC(=S)N(CC(=O)O)C3=O)o2)cc1 [Compound B82]
- IC50: < 10 µM

Structure (SMILES): CN(C)c1ccc(-c2ccc(C=C3SC(=S)N(CC(=O)O)C3=O)o2)cc1 [Compound B84]
- IC50: 11 to 40 µM

Structure (SMILES): O=C(O)CN1C(=O)C(=Cc2ccc(-c3cccc(Cl)c3Cl)o2)SC1=S [Compound B85]
- IC50: < 10 µM

Structure (SMILES): CN(C)c1ccc(-c2ccc(C=C3SC(=S)N(CC(=O)O)C3=O)o2)cc1 [Compound B86]
- IC50: 41 to 80 µM

Structure (SMILES): Cc1ccccc1-c1ccc(C=C2SC(=S)N(CC(=O)O)C2=O)o1 [Compound B87]
- IC50: 41 to 80 µM

Structure (SMILES): COc1ccccc1-c1ccc(C=C2SC(=S)N(CC(=O)O)C2=O)o1 [Compound B88]
- IC50: 11 to 40 µM

Structure (SMILES): N#Cc1c(F)cccc1-c1ccc(C=C2SC(=S)N(C(C(=O)O)c3ccccc3)C2=O)o1 (centres unmarked) [Compound B89]
- IC50: 11 to 40 µM

Structure (SMILES): O=C(O)CCCN1C(=O)C(=Cc2ccc(-c3ccccc3Cl)o2)SC1=S [Compound B90]
- IC50: < 10 µM

Structure (SMILES): O=C(O)CCCN1C(=O)C(=Cc2ccc(-c3cccc(C(F)(F)F)c3)o2)SC1=S [Compound B91]
- IC50: < 10 µM
